System: IL-6-positive cells
Test: Immunohistochemistry, IL-6-positive cells after CCI injury
Type: in vivo, rat
Settings: single-dose 30 mg kg^-1 i.p.; cortical tissue adjacent to contusion core, 1 day post-injury
Experimental: A previously described CCI injury procedure was utilized (Chen et al., 2003). Male Sprague-Dawley rats, which have body weight of 250-300 g, were anaesthetized with sodium pentobarbital (i.p.; 50 mgkg^−1; Rhone Merieux, Harlow, UK) and placed in a stereotaxic frame. A 5-mm craniotomy was performed over the left parietal cortex, centered on the coronal suture and 3 mm lateral to the sagittal suture. Considerable care was taken to avoid injury to the underlying dura. Injury was made using a pneumatic piston with a rounded metal tip (2.5 mm diameter) that was angled 22.5° C. to the vertical so that the tip was perpendicular with the brain surface at the centre of the craniotomy. A velocity of 4 ms^−1 and a deformation depth 2 mm below the dura were used. The bone flap was immediately replaced and sealed, and the scalp was closed with sutures. Body temperature was monitored throughout the surgery by a rectal probe; temperature was maintained at 37.0±0.5° C. using a heated pad. […] Testing after injury was as follows: (1) real-time quantitative RT-PCR analysis for TNF-α, IL-1β and IL-6 mRNA expression at 6 h post-injury (n=7 for each group); (2) FluoroJade B (FJB) staining, TNF-α, IL-1β and IL-6 immunohistochemistry, as well as ELISA at 24 h post-injury to assess degenerative neurons and to determine cytokine expression (n=7 for each group). […]

SMILES: O=c1cc(-c2ccccc2)oc2cc(O)c(O)c(O)c12 [baicalein]
- reduction in IL-6-positive cells relative to vehicle: 33%

Source: patent US20100222421A1, “Usage of Baicalein in the Preparation of a Pharmaceutical Composition for the Treatment of Traumatic Brain Injury” (National Defense Medical Center, priority 2009, published 2010)
